Experimental data reported in US6428817B1, “Companion animal therapeutic treat” (priority 2001, dated 2002).

How the values were obtained:
cartilage degradation = details: mammals; cited from earlier work
[1] = test system: bovine nasal cartilage explants; experiment: Proteoglycan degradation in bovine nasal cartilage explants, basal and TNF alpha stimulated; assay for sulfated glycosaminoglycans; assay type: cell-based; details: EGCg 22 μM, 5 days culture, with or without recombinant human tumor necrosis factor alpha 3 nM
Protocol: See, Haqqi, et al., Proc. Natl. Acad. Sci., USA, 96:4524-29 (1999). […] Id. In an experiment, purified EGCg, from Sigma Chemical Supply, St. Louis, Mo., was placed with bovine nasal cartilage explants at a concentration of22 μM. This mixture was cultured for 5 days in the presence or absence of the pro-inflammatory cytokine, recombinant human tumor necrosis factor alpha at 3 nM. The inhibition of both the basal and stimulated protcoglycan degradation by EGCg was measured using a calorimetric assay for sulfated glycosaminoglycans. See, Farndale, et al., Biochem. Biophys. Acta, 4:883 (1986).

Q: Which results are given for epigallocatechin-3-gallate [EGCg]?
A: inhibition of cartilage degradation (cartilage degradation): inhibitor of cartilage degradation; inhibition of basal and stimulated proteoglycan degradation (cartilage breakdown) [1]: potent inhibitor of cartilage breakdown
